In the test the test system is T1, Top2.
T1 construct: gene TOP2A; Top2 used in TopoGEN decatenation assay
Put plainly: kDNA decatenation assay, agarose gel. Format: biochemical. As to conditions: kinetoplast DNA 0.2 μg in 20 μl, 5 mM ATP, 10 mM MgCl2, 150 mM NaCl, pH 8.0, 37 °C, 30 min. An excerpt: kDNA decatenation assay, agarose gel on Top2

The IC50 is the point on the concentration scale where inhibition reaches its midpoint. For the molecule `CCN(CC)CCNc1ccc(C)c2sc3ccc(O)cc3c(=O)c12` [compound 317921, NSC317921], inhibition was half-maximal at 7.5 µM (IC50).

Molecule `O=C1c2c(O)ccc(O)c2C(=O)c2c(NCCNCCO)ccc(NCCNCCO)c21` [compound 301739, mitoxantrone] showed an IC50 (positive control) of 3.3 µM.

With `CCN(CC)CCNc1ccc2nc(C)n3c4ccc(O)cc4c(=O)c1c23` [compound 637992, NSC637992], the IC50 worked out at 3.3 µM.

In the case of `COc1cccc2c(N)c3cccc(C(=O)NCCN(C)C)c3nc12` [compound 691240, NSC691240], half-maximal inhibition (IC50) was put at 12.1 µM.

In the case of `CCN(CC)CCNc1ccc2ncn3c4c(OC)ccc(OC)c4c(=O)c1c23` [compound 660839, NSC660839], the IC50 is more than 100 µM.

The record behind these values is publication PMC6842385, “Identifying new topoisomerase II poison scaffolds by combining publicly available toxicity data and 2D/3D-based virtual screening” (Journal of Cheminformatics, 2019).
